Measured values as given in ChEMBL document CHEMBL1201862, “PubChem BioAssay data set” (2004).
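96-well plates; 48 h exposure; 5 concentrations. Endpoints by linear interpolation between flanking doses. Not reached: highest tested concentration assigned. The concentration for 50% growth inhibition is given as GI50.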 Activity calls are given as the source filed them. Rule as the data show it: active = GI50 up to about 1.1 µM and inactive = higher.

Columns and labels:
Assay in all cases: growth of human tumour cells (NCI), 48 h
[1] = tested on: T47D
[2] = tested on: 786-0
[3] = tested on: PC-3
[4] = tested on: OVCAR-5
[5] = tested on: MDA-N
[6] = tested on: MOLT-4
[7] = tested on: HL-60
[8] = tested on: NCI-H522
[9] = tested on: DU-145
[10] = tested on: UACC-62
[11] = tested on: SNB-19
[12] = tested on: Hs-578T
[13] = tested on: MDA-MB-435
[14] = tested on: K562
[15] = tested on: UACC-257
[16] = tested on: SF-268
[17] = tested on: NCI/ADR-RES
[18] = tested on: Malme-3M
[19] = tested on: M14
[20] = tested on: SW-620
[21] = tested on: IGROV-1
[22] = tested on: U-251
[23] = tested on: HOP-62
[24] = tested on: SF-295
[25] = tested on: HCT-116
[26] = tested on: KM12
[27] = tested on: SF-539
[28] = tested on: COLO 205
[29] = tested on: MCF7
[30] = tested on: LOX IMVI
[31] = tested on: SK-MEL-2
[32] = tested on: HCC 2998
[33] = tested on: OVCAR-8
[34] = tested on: HT-29
[35] = tested on: OVCAR-3
[36] = tested on: RXF 393
[37] = tested on: NCI-H460
[38] = tested on: HOP-92
[39] = tested on: NCI-H23
[40] = tested on: HCT-15
[41] = tested on: MDA-MB-231
[42] = tested on: ACHN
[43] = tested on: OVCAR-4
[44] = tested on: SK-OV-3
[45] = tested on: SK-MEL-5
[46] = tested on: SN12C
[47] = tested on: CCRF-CEM
[48] = tested on: SNB-75
[49] = tested on: A549
[50] = tested on: SK-MEL-28
[51] = tested on: SR
[52] = tested on: BT-549
[53] = tested on: TK-10
[54] = tested on: CAKI-1
[55] = tested on: A498
[56] = tested on: EKVX
[57] = tested on: NCI-H226
[58] = tested on: RPMI-8226
[59] = tested on: UO-31
[60] = tested on: KM-20L2
[61] = tested on: DLD-1
[62] = tested on: M19-MEL

Measured: GI50

CC(=O)c1sc2c(c1OC(=O)c1ccccc1)c(=O)n(-c1ccccc1)c(=S)n2-c1ccccc1
18 µM: [40]
inactive: [1] 9.23 µM | [2] 2.9 µM | [3] 2.9 µM | [4] 3.82 µM | [5] 6.4 µM | [6] 2.26 µM | [7] 34 µM | [8] 28.6 µM | [9] 28.1 µM | [10] 13.4 µM | [11] 4.84 µM | [12] 3.74 µM | [13] 4.24 µM | [14] 17.4 µM | [15] 4.38 µM | [16] 4.97 µM | [17] 4.65 µM | [18] 2.46 µM | [19] 3.4 µM | [20] 15.2 µM | [21] 23.3 µM | [22] 3.94 µM | [23] 15 µM | [24] 2.48 µM | [25] 13.4 µM | [26] 33.1 µM | [27] 2.32 µM | [28] 13.6 µM | [29] 35.7 µM | [30] 2.26 µM | [31] 2.79 µM | [32] 17.3 µM | [33] 4.38 µM | [34] 2.93 µM | [35] 17.9 µM | [36] 2.86 µM | [37] 11.2 µM | [38] 1.69 µM | [39] 27.3 µM | [41] 7.93 µM | [42] 3.03 µM | [43] 20.4 µM | [44] 4.14 µM | [45] 5.62 µM | [46] 5.78 µM | [47] 2.51 µM | [48] 2.26 µM | [49] 35.3 µM | [50] 3.89 µM | [51] 3.95 µM | [52] > 10 µM | [53] 24 µM | [54] 8.43 µM | [55] 2.49 µM | [56] 15.9 µM | [57] 2.62 µM | [58] 3.12 µM | [59] 4.09 µM

CCOC(=O)/C=C(/C(=O)OCC)n1cc(C)c(=O)n(Cc2cnnn2COCCOC(C)=O)c1=O
7.45 µM: [40]
inactive: [1] 6.93 µM | [2] 7.31 µM | [3] 17.2 µM | [4] 16.4 µM | [5] 23.1 µM | [6] 3.94 µM | [7] 3.48 µM | [8] 1.58 µM | [9] 24.5 µM | [10] 15.2 µM | [11] > 58.5 µM | [12] 19.1 µM | [13] 14.4 µM | [14] 2.99 µM | [15] 13.5 µM | [16] 17.4 µM | [17] 23.6 µM | [18] 2.8 µM | [19] 14.7 µM | [20] 3.81 µM | [21] 17 µM | [22] 20.4 µM | [23] 49.7 µM | [24] > 100 µM | [25] 13.3 µM | [26] 21.3 µM | [27] 5.22 µM | [28] 3.79 µM | [29] 10.5 µM | [30] 14.8 µM | [31] 28.4 µM | [32] 20 µM | [33] 14.7 µM | [34] 13.9 µM | [35] 15.3 µM | [36] 2.64 µM | [37] 24 µM | [38] 2.43 µM | [39] 15.8 µM | [41] 16 µM | [42] 6.05 µM | [43] 24.7 µM | [44] > 100 µM | [45] 20.7 µM | [46] 22.1 µM | [47] 2.17 µM | [48] 24.9 µM | [49] 50.4 µM | [50] 16.4 µM | [51] 4.91 µM | [52] 17.5 µM | [53] 5.24 µM | [54] 5.26 µM | [55] 29.2 µM | [56] 14.1 µM | [57] 17.8 µM | [58] 8.59 µM | [59] 16.7 µM

C/C(=N\NC(=O)c1cccnc1)c1cccc(/C(C)=N/NC(=O)c2cccnc2)n1.CC(=O)[O-].CC(=O)[O-].[Zn+2]
2.26 µM: [40]
active: [16] 0.668 µM | [22] 1.03 µM | [43] 0.504 µM
inactive: [2] 4.43 µM | [60] 1.67 µM | [4] 4.13 µM | [10] 2.25 µM | [11] 2.86 µM | [61] 1.68 µM | [15] 5.41 µM | [19] 4.46 µM | [20] 3.54 µM | [23] 1.45 µM | [24] 2.74 µM | [62] 8.45 µM | [26] 3.3 µM | [27] 1.57 µM | [30] 1.62 µM | [33] 1.62 µM | [36] 3.01 µM | [37] 4.31 µM | [39] 4.01 µM | [42] 1.52 µM | [44] 2.22 µM | [46] 4.9 µM | [49] 3.91 µM | [53] 5.65 µM | [54] 2.64 µM | [56] 2.86 µM | [57] 2.31 µM | [58] 6.21 µM | [59] 2.72 µM

CC1(C)CC(O)C2=C(O1)C(=O)c1ncccc1C2=O (stereo not given)
active: [48] 0.53 µM
4.02 µM: [40]
inactive: [1] 2.26 µM | [2] 1.87 µM | [3] 2.9 µM | [4] 1.89 µM | [5] 1.75 µM | [6] 1.93 µM | [7] 1.7 µM | [8] 1.29 µM | [9] 5.07 µM | [10] 1.72 µM | [11] 4.65 µM | [12] 2.7 µM | [13] 1.71 µM | [14] 2.11 µM | [15] 1.71 µM | [16] 2 µM | [17] 1.5 µM | [18] 1.49 µM | [19] 1.96 µM | [20] 1.87 µM | [21] 2.17 µM | [22] 1.75 µM | [23] 1.85 µM | [24] 1.83 µM | [25] 2.28 µM | [26] 3.48 µM | [27] 1.84 µM | [28] 2.32 µM | [29] 2.12 µM | [30] 1.58 µM | [31] 2.58 µM | [32] 5.41 µM | [33] 2.6 µM | [34] 3.05 µM | [35] 2.35 µM | [36] 3.4 µM | [37] 2.52 µM | [38] 2.28 µM | [39] 1.64 µM | [41] 2.29 µM | [42] 2.93 µM | [43] 1.73 µM | [44] 13.7 µM | [45] 1.66 µM | [46] 1.94 µM | [47] 2.19 µM | [49] 9.51 µM | [50] 1.69 µM | [51] 2.34 µM | [52] 1.75 µM | [53] 6.46 µM | [54] 2.24 µM | [55] 5.3 µM | [56] 2.54 µM | [57] 1.87 µM | [58] 2.48 µM | [59] 1.85 µM
